{"source": "patent US12433877B2", "about": "“Sustained release drug delivery systems and related methods” (Durect Corporation, priority 2021, dated 2025)", "key": {"clinical": {"assay": "clinical", "conditions": "human, in vivo; for half-life: t1/2 (min, max)", "procedure": "Additionally, alpha 1 acid glycoprotein (AAG) plasma concentrations were measured in these two groups for correlation with free bupivacaine concentrations.\nUsing non-compartmental methods the following PK parameters were calculated from the plasma concentrations of each compound: area under the plasma concentration vs. time curve until the last measured concentration (AUCt), area under the plasma concentration vs. time curve extrapolated until infinity (AUCinf), the maximum concentration (Cmax), the time of its occurrence (tmax) and the apparent terminal elimination half-life (t1/2). […] The average […] of bupivacaine was approximately 5.2%; free bupivacaine plasma concentrations generally paralleled those of total bupivacaine. There was a large interindividual variability of Cmax of both total and free bupivacaine. […] Note: Table 1.5 presents Geometric mean, ±68th percentile for Cmax rather than absolute min,max."}, "[1]": {"test_system": "patients undergoing elective arthroscopic shoulder surgery", "assay": "Example 1 / Study 1: adverse events and 6-month follow-up safety", "assay_type": "in vivo, human", "description": "The incidence of adverse events (AEs); the incidence of bupivacaine-related CNS side effects; clinical laboratory tests; vital signs; 12-lead ECGs; and physical examinations.\nEvaluation by the investigator of wound healing and tissue conditions at the surgical wound on Days 7 and 14, and at the 6-month follow-up visit. An MRI of the shoulder as well as a functionality assessment of the shoulder using the Constant-Murley score were to be performed at the 6-month follow-up visit.\nThere were three studies evaluating the safety of Formulation A administered during shoulder surgery. […]\nAdditional follow-up safety data consisting of shoulder MRI, physical examination of the shoulder, and assessments of wound healing were collected at 6 months in Study 1 and at 18 months in Study 2. […]"}, "[2]": {"test_system": "subjects undergoing elective outpatient laparoscopic cholecystectomy", "assay": "Example 17: laparoscopic cholecystectomy study, safety (surgical site and CNS-related adverse reactions, TEAEs)", "assay_type": "in vivo", "conditions": "for Fatal TEAE: Part 2", "procedure": "In two studies in patients undergoing laparoscopic cholecystectomy, Formulation A or bupivacaine HCl was administered into the laparoscopic port incisions at the end of surgery. In one of these studies, a subset of patients received either Formulation A or saline placebo. In a study of patients undergoing laparoscopically-assisted colectomy, Formulation A or vehicle placebo was administered predominantly into the hand port incision at the end of surgery. In a study of patients undergoing laparotomy, Formulation A or bupivacaine HCl was administered into the full length of the surgical incision at the end of surgery. Table 4.7 and Table 4.8 present, respectively, surgical-site adverse reactions and early-occurring central nervous system (CNS)-related adverse reactions from the laparoscopic cholecystectomy study that included a saline placebo control arm.\nThe trial included: 1) a randomized, parallel-group, double-blind, placebo-controlled study (Part 1) and a randomized, parallel-group, double-blind, bupivacaine HCl active-controlled study (Part 2). The trial evaluated the efficacy and safety of Formulation A (bupivacaine, benzyl alcohol, sucrose acetate isobutyrate) as a delivery system in subjects undergoing elective outpatient laparoscopic cholecystectomy.\nThe study was conducted as 2 separate parts (Part 1 and Part 2).\nThe fascia was closed, as required, prior to instillation of Formulation A. Formulation A was instilled into the incisions via a blunt-tipped syringe-tip applicator just prior to skin closure. After administration, the skin was closed in standard fashion with subcuticular sutures and cyanoacrylate skin adhesive or Steri-Strips™.\nIn Part 1, subjects randomized to saline-placebo were administered sterile normal saline 5 mL (0.9% sodium chloride injection, USP) by direct instillation into the surgical incisions. The 5 mL of placebo was divided between the 4 ports according to a protocol-specified dosing schedule, to provide coverage of all surgical incisions. The fascia was closed, as required, prior to instillation of the placebo composition. The placebo composition was instilled into the incisions via a blunt-tipped syringe-tip applicator just prior to skin closure. After administration, the skin was closed in standard fashion with subcuticular sutures and cyanoacrylate skin adhesive or Steri-Strips™.\nIn Part 2, subjects randomized to active control were administered bupivacaine HCl 0.5% 15 mL (75 mg; without epinephrine) by infiltration into the margins of the surgical incisions with a 22 gauge needle. The 15 mL of bupivacaine HCl composition was divided between the 4 ports according to a protocol-specified dosing schedule, to provide coverage of all surgical incisions. The fascia was closed, as required, prior to administration of the bupivacaine HCl active control composition. After infiltration, the skin was closed in standard fashion with subcuticular sutures and cyanoacrylate skin adhesive or Steri-Strips™\nThere were no fatalities in this trial. […]"}, "[3]": {"test_system": "patients undergoing a variety of general surgical procedures", "assay": "Example 18: general surgical procedures (laparotomy, laparoscopic cholecystectomy, colectomy), pain and opioid use", "assay_type": "in vivo, human", "conditions": "ITT; for Repeated Measures Pain Intensity on Movement 0-72 Hours, LS Mean: All Timepoints 0-72 hr, LogPad scores only"}, "[4]": {"assay": "Example 18: plasma pharmacokinetics by cohort", "assay_type": "in vivo, human", "conditions": "Cohort 2; total bupivacaine in plasma", "procedure": "Plasma PK samples were analyzed for determination of total bupivacaine concentration only and none of the samples were analyzed for determination of free drug concentration."}, "[5]": {"conditions": "human, in vivo"}}, "note": "Counter-ions that a name gives are not always drawn.", "data": [{"smiles": "CCCCN1CCCCC1C(=O)Nc1c(C)cccc1C", "note": "(stereo not drawn) [Bupivacaine HCl]", "values": [{"measurement": "AUC(0-inf)", "setting": "clinical", "value": "30 to 2210", "unit": "ng·h/mL"}, {"measurement": "AUC(0-t)", "setting": "clinical", "value": "249 to 1900", "unit": "ng·h/mL"}, {"measurement": "AUCinf (min, max), free bupivacaine", "setting": "clinical", "value": "(0.7, 134) h · ng/mL"}, {"measurement": "AUCinf, free bupivacaine", "setting": "clinical", "value": 48, "unit": "ng·h/mL"}, {"measurement": "AUCt (min, max), free bupivacaine", "setting": "clinical", "value": "(0.010, 0.102) mg · h · L^−1"}, {"measurement": "AUCt, free bupivacaine", "setting": "clinical", "value": 33, "unit": "ng·h/mL"}, {"measurement": "Cmax", "setting": "clinical", "value": "8 to 195", "unit": "ng/mL"}, {"measurement": "Cmax, free bupivacaine", "setting": "clinical", "value": 5.0, "unit": "ng/mL"}, {"measurement": "Cmax, total bupivacaine", "setting": "clinical", "value": 90, "unit": "ng/mL"}, {"measurement": "Tmax", "setting": "clinical", "value": "0.92 to 12", "unit": "h"}, {"measurement": "tmax (min, max), free bupivacaine", "setting": "clinical", "value": "(0.92, 12.0) h"}, {"measurement": "half-life", "setting": "clinical; free bupivacaine", "value": "2.9 to 15.2", "unit": "h"}, {"measurement": "half-life", "setting": "clinical; total bupivacaine", "value": "2.6 to 9.6", "unit": "h"}, {"measurement": "Constant-Murley score decreased from baseline", "setting": "[1]; 6-month follow-up", "value": "(0%)"}, {"measurement": "Constant-Murley score, follow-up, mean", "setting": "[1]; 6-month follow-up", "value": 65.6}, {"measurement": "Shoulder MRI: Improved compared with pre-surgical MRI", "setting": "[1]; 6-month follow-up", "value": "(24.0%)"}, {"measurement": "Shoulder MRI: No change compared with pre-surgical MRI", "setting": "[1]; 6-month follow-up", "value": "(36.0%)"}, {"measurement": "Shoulder MRI: Worsened compared with pre-surgical MRI", "setting": "[1]; 6-month follow-up", "value": "(40%)"}, {"measurement": "Adverse reaction: Electrocardiogram T wave inversion", "setting": "[1]; Table 4.1, Study 1", "value": 0, "unit": "%"}, {"measurement": "Adverse reaction: Headache", "setting": "[1]; Table 4.1, Study 1", "value": "1 (3.4%)"}, {"measurement": "Adverse reaction: Hypoesthesia", "setting": "[1]; Table 4.1, Study 1", "value": "1 (3.4%)"}, {"measurement": "Adverse reaction: Pruritus generalized", "setting": "[1]; Table 4.1, Study 1", "value": 0, "unit": "%"}, {"measurement": "All TEAEs", "setting": "[1]; safety population", "value": 37.9, "unit": "%"}, {"measurement": "TEAE: Alanine aminotransferase increased", "setting": "[1]; safety population", "value": 0.0, "unit": "%"}, {"measurement": "TEAE: Cardiac disorders", "setting": "[1]; safety population", "value": 10.3, "unit": "%"}, {"measurement": "TEAE: Gastrointestinal disorders", "setting": "[1]; safety population", "value": 3.4, "unit": "%"}, {"measurement": "TEAE: General disorders and administration site conditions", "setting": "[1]; safety population", "value": 0.0, "unit": "%"}, {"measurement": "TEAE: Headache", "setting": "[1]; safety population", "value": 3.4, "unit": "%"}, {"measurement": "TEAE: Injury, poisoning and procedural complications", "setting": "[1]; safety population", "value": 0.0, "unit": "%"}, {"measurement": "TEAE: Investigations", "setting": "[1]; safety population", "value": 6.9, "unit": "%"}, {"measurement": "TEAE: Musculoskeletal and connective tissue disorders", "setting": "[1]; safety population", "value": 6.9, "unit": "%"}, {"measurement": "TEAE: Musculoskeletal pain", "setting": "[1]; safety population", "value": 6.9, "unit": "%"}, {"measurement": "TEAE: Nausea", "setting": "[1]; safety population", "value": 3.4, "unit": "%"}, {"measurement": "TEAE: Nervous system disorders", "setting": "[1]; safety population", "value": 13.8, "unit": "%"}, {"measurement": "TEAE: Respiratory, thoracic and mediastinal disorders", "setting": "[1]; safety population", "value": 6.9, "unit": "%"}, {"measurement": "TEAE: Skin and subcutaneous tissue disorders", "setting": "[1]; safety population", "value": 6.9, "unit": "%"}, {"measurement": "Fatal TEAE", "setting": "[2]; % of subjects", "value": "(0.0%)"}, {"measurement": "Fatal TEAE", "setting": "[2]; number of subjects", "value": 0}, {"measurement": "Surgical site: Drainage from surgical incision(s)", "setting": "[2]; human, in vivo", "value": "(4.1%)"}, {"measurement": "Surgical site: Surgical site bleeding", "setting": "[2]; human, in vivo", "value": "(16.2%)"}, {"measurement": "Surgical site: Surgical site infection", "setting": "[2]; human, in vivo", "value": "(0.7%)"}, {"measurement": "Surgical site: Visible bruising", "setting": "[2]; human, in vivo", "value": "(70.9%)"}, {"measurement": "Surgical site: Wound dehiscence", "setting": "[2]; human, in vivo", "value": "(2.0%)"}, {"measurement": "Surgical site: Wound hematoma", "setting": "[2]; human, in vivo", "value": "(1.4%)"}, {"measurement": "Treated subjects with treatment-emergent serious adverse events", "setting": "[2]; human, in vivo", "value": 3, "unit": "subjects"}, {"measurement": "Constipation (Constipation), (%)", "setting": "[2]; human, in vivo, 6 h", "value": "(6.8%)"}, {"measurement": "Dizziness (Dizziness), (%)", "setting": "[2]; human, in vivo, 6 h", "value": "(20.9%)"}, {"measurement": "Dysgeusia (Metallic taste in mouth), (%)", "setting": "[2]; human, in vivo, 6 h", "value": "(14.9%)"}, {"measurement": "Headache (Headache), (%)", "setting": "[2]; human, in vivo, 6 h", "value": "(12.2%)"}, {"measurement": "Hypoesthesia (Numbness), (%)", "setting": "[2]; human, in vivo, 6 h", "value": "(0.7%)"}, {"measurement": "Nausea (Nausea), (%)", "setting": "[2]; human, in vivo, 6 h", "value": "(38.5%)"}, {"measurement": "Paresthesia (Tingling), (%)", "setting": "[2]; human, in vivo, 6 h", "value": "(4.1%)"}, {"measurement": "Pruritus (Itching), (%)", "setting": "[2]; human, in vivo, 6 h", "value": "(3.4%)"}, {"measurement": "Somnolence (Drowsiness), (%)", "setting": "[2]; human, in vivo, 6 h", "value": "(32.4%)"}, {"measurement": "Vomiting (Vomiting), (%)", "setting": "[2]; human, in vivo, 6 h", "value": "(10.1%)"}, {"measurement": "Repeated Measures Pain Intensity on Movement 0-72 Hours, LS Mean", "setting": "[3]; Cohort 1 (Laparotomy)", "value": 5.9}, {"measurement": "Total Morphine-equivalent Opioid Medication Use, MEDD 0-72 hours, Median", "setting": "[3]; Cohort 1 (Laparotomy)", "value": 63.0, "unit": "mg"}, {"measurement": "Repeated Measures Pain Intensity on Movement 0-72 Hours, LS Mean", "setting": "[3]; Cohort 2 (Laparoscopic Cholecystectomy)", "value": 3.6}, {"measurement": "Tmax Median", "setting": "[4]", "value": 1, "unit": "h"}, {"measurement": "Cmax (min, max), free bupivacaine", "setting": "[5]", "value": "(0.3, 10.1) ng/mL"}]}]}
